Source: patent publication US6239087A, “Detergent compositions containing fragrance precursors and the fragrance precursors themselves” (The Procter & Gamble Company, priority 1998, dated 2001)

Test: Pro-Fragrant Hydrolysis Test (hydrolysis half-life t-1/2 by UV/Vis)
Type: physicochemical
Conditions: pH 0; 90/10 dioxane/water, 30° C.
Procedure: Hydrolysis half-life is the measurement used to determine the ease with which the pro-fragrance compound undergoes acid hydrolysis and thereby releases its fragrance component(s) upon exposure to acid conditions. […] Preferably, pro-fragrances of the invention have a half-life at pH 2 of less than 60 minutes. For granular detergents, the more reactive pro-fragrances, that is, those with half-life at pH 2 of less than one minute, are most suitable, although those having a half-life of less than 60 minutes at pH 0 are also useful. For liquid detergent applications, pro-fragrances having a half-life of less than 60 minutes at pH 0, and half-life greater than one minute at pH 2 should preferably be used.
Hydrolysis half-life is determined by UV/V is spectroscopy in a 90/10 dioxane/water system at 30° C. by following the appearance of the carbonyl absorbance. Because of the hydrophobicity of the pro-fragrance compounds of the invention, a high dioxane/water ratio is needed to ensure solubility of the pro-fragrance. The pH of the water used is achieved by using aqueous HCl. The concentration of the pro-fragrance in the dioxane/water system can be adjusted to achieve convenient, measurable absorbance changes.
All measurements are carried out using a Hewlett Packard 8452 A Diode Array Spectrophotometer using quartz 1 cm path length cuvette cells. […] The pH's are measured using an Orion 230 A standardized with pH 4 and pH 7 buffers. […]
Pro-fragrance is weighed out in a 10.00 ml volumetric flask using an analytical balance (Mettler AE 200) Precision is 1/10 mg. […] Hydrolysis time is measured, starting upon addition of the acid. […] The absorbance of the pro-fragrance solution (At) is followed at a regular series of time intervals, and the cuvette is kept in the water-bath at the above-indicated temperature between measurements. Initial absorbance (Ao) measurements are carried out using an equal concentration of pro-fragrance in a 90/10 v/v dioxane-deionized water solution, and final absorbance (Af) measurements are taken using the hydrolyzed pro-fragrance solution after the hydrolysis is complete. The wavelength at which the hydrolysis is followed is chosen at the wavelength of the absorbance maximum of the parent aldehyde or ketone.
Reaction half-lifes are determined using conventional procedures. The observed first-order rate constant (kobs) is determined by slope of the line provided by plotting the following finction vs time (min):
wherein said function is the natural log of the ratio between the absorbance difference at initial time (Ao) and final time (Af) over the absorbance difference at time t (At) and final time (Af). […]

| SMILES | t1/2 (hydrolysis half-life) |
| --- | --- |
| CCCCCCCCCC(OC/C=C(\C)CCC=C(C)C)OC/C=C(\C)CCC=C(C)C [Example 4, Digeranyl Decanal Acetal] | 44 min |
| CC(C)=CCCC(C)=CC(OC/C=C(\C)CCC=C(C)C)OC/C=C(\C)CCC=C(C)C [Example 2, Digeranyl Citral Acetal] | less than one |
| CCCCCCCCCCOC(C)(CCc1ccccc1)OCCCCCCCCCC [Example 3, Didecyl Benzyl Acetone Ketal] | less than one |
| CCCCCCCCCCOC(OCCCCCCCCCC)c1ccc(OC)cc1 [Example 1, Didecyl Anisaldehyde Acetal] | less than 1 minutes |
